Laboratory results from patent US20250057813A1, “APOPTOSIS RELATED PROTEIN IN THE TGF-BETA SIGNALING PATHWAY (ARTS) MIMETIC COMPOUNDS, COMPOSITIONS, METHODS AND USES THEREOF IN INDUCTION OF APOPTOSIS” (Carmel-Haifa University Economic Corporation Ltd., priority 2022, published 2025).
pKd: −log10 of the molar value.

Experiments:
MEF cells = test: Western blot analysis of MEF cells (WT and XIAP KO); type: cell-based, mouse; details: 20 μM B3 for 2, 4, 6, 16 hours
Procedure: Cells were lysed in whole-cell extract buffer [25 mM HEPES, pH 7.7, […], 1.5 mM MgCl2, 0.2 mM EDTA, 0.1% Triton X-100, 100 μg/ml phenylmethylsulfonyl fluoride (PMSF) and protease inhibitor cocktail (Roche, 1:100 dilution)] and placed on ice for 30 min (vortexing once after 15 min). After 30 minutes, the samples were centrifuged at 13,000×g for 10 minutes at 4° C. The supernatants containing total protein were measured for protein concentration using Bio-Rad Protein Assay Dye Reagent Concentrate Kit. 40 to […] was separated by sodium dodecyl sulfate-polyacrylamide gel electrophoresis (SDS-PAGE) (12% or 7.5%), followed by transfer to a nitrocellulose membrane. The membranes were blocked with 5% (w/v) non-fat dried skimmed milk powder in PBS supplemented with 0.05% Tween-20 (PBS-T) for 1 h at RT. Next, primary antibodies were added at 4° C. overnight or for 2 h at room temperature. Membranes were then incubated with secondary antibody for 1 h at RT and washed three times for 15 min each with PBS-T. Western Bright ECL (Advansta) was added to the membrane for 30-60 s and analyzed using Image Quant LAS-4000 (GE Healthcare Life Sciences) and Image Quant LAS-4000 software (GE Healthcare Life Sciences).

[1] = test system: CCRF-CEM (acute lymphoblastic leukemia) cell line; test: Western blot analysis of CCRF-CEM; type: cell-based; details: B3 alone, 24 hrs
Procedure: The cells were lysed in WCE (whole-cell extract) buffer [25 mM Hepes, pH 7.7, 0.3M NaCl, 1.5 mM MgCl2, 0.2 mM EDTA, 0.1% Triton X-100, 100[μg/ml PMSF and protease inhibitor cocktail (Roche, 1:100 dilution)]. 100 μg of total cell protein, measured with the Bio-Rad Protein Assay kit, were separated by SDS-PAGE (12%) followed by transfer for 2 h on to a nitrocellulose membrane. The membrane was blocked with 5% (w/v) non-fat dried skimmed milk powder in PBS supplemented with 0.05% Tween20 (PBS-T) for 1 hour at room temperature (R.T). Membrane was then probed with primary antibody at 4° C. overnight. Next, the membrane was incubated with the appropriate HRP-conjugated secondary antibody, for 1 hour at R.T. and washed 15 min ×3 with PBS-T. WesternBright ECL (Advansta) was added to the membrane for 2 min and analyzed using ImageQuant LAS-4000 analyzer (GE Healthcare Life Sciences) & “ImageQuant LAS-4000” software (GE Healthcare Life Sciences). Densitometry analysis was performed using ImageQuant total lab 7 (GE Healthcare Life Sciences), image analysis software.

BCL-2 = BCL-2 (Homo sapiens, UniProt P10415); test: MST binding assay; details: binding curve, dose response
Sequence of BCL-2 (P10415 whole entry): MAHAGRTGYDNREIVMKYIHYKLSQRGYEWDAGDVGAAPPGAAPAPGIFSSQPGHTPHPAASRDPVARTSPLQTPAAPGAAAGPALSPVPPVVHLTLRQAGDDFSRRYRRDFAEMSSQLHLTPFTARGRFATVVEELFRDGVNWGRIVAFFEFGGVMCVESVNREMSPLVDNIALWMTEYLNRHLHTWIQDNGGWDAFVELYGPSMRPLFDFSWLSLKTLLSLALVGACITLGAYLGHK
Procedure: (§1) Microscale thermophoresis (MST) binding assays were performed by CreLux, a WuXi AppTech company in Germany, using recombinant ARTS, XIAP, Bcl-2 and cIAP1 proteins. Specifically, for performing experiments with untagged XIAP, a fluorescent label (NT650) was covalently attached to the protein (Maleimide coupling). The labelling was performed in a buffer containing 50 mM HEPES pH 7.0, 150 mM NaCl and 0.005% Tween-20.

XIAP = XIAP (Homo sapiens, UniProt P98170); test: Nano-DSF binding assay (Crelux); details: binding curve, dose response
Sequence of XIAP (P98170 whole entry): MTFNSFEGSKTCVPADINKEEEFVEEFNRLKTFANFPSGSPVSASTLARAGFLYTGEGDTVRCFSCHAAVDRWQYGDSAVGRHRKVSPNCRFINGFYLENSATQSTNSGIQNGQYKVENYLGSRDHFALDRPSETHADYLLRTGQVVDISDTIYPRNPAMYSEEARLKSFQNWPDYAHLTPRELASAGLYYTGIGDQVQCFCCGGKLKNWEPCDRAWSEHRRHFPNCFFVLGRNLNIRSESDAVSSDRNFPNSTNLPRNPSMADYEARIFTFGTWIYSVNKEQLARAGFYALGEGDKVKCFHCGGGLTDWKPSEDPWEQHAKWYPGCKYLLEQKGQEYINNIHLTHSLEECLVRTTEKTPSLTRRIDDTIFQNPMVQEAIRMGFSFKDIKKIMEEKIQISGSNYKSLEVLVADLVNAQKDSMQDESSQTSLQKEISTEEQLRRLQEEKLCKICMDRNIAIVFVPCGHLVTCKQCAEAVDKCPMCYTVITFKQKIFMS

[2] = biological target: T1, interaction between ARTS and Bcl2 (Homo sapiens, UniProt P10415); test: BiFC assay between ARTS and Bcl-2; type: cell-based; details: 20 μM
T1 construct: expressed in transfected cells; host or cells: A-375 or HeLa wt cells (the legend names both)
T1 sequence (P10415 whole entry): as the sequence (P10415 whole entry) above
Excerpt: The split-Venus BiFC system was used to evaluate close proximity indicating possible direct binding between pairs of proteins. The proteins were fused either to the N-terminal part of the Venus-YFP (yellow fluorescence protein) (VN) or the C-terminal part (VC). All Venus fragments were fused to the C-terminal sequences of these proteins. The Jun and Fos pair was used as a positive control (P.C.), and the Jun and FosdeltaZIP pair was used as a negative control (N.C.). A vector encoding dsRed was used as a transfection efficiency marker. Cells were seeded in 12 well plates overnight. Cells were then transfected with (Bcl-2-VC, ARTS-VN, XIAP-VN and XIAP-VC) for 24-36 hours. Cells were then treated with apoptotic inducing reagents for 24 hrs.

Jurkat cell lines = test: PrestoBlue viability assay; type: cell-based; details: 20 μM B3 vs 12.5 μM Etoposide, 24 h
[3] = test system: p53 Ubiquitylation in HCT 116 WT; test: In vivo ubiquitylation assay of p53; type: cell-based; details: 20 μM B3, 5 h, with proteasome inhibitor
Procedure: (§2) All cells were transiently transfected with a Ub-HA (ubiquitin-tagged with HA) construct and treated with a proteasome inhibitor (Bortezomib or MG-132, at 20 μM for 6 h). after 1 h of proteasome inhibitor incubation, B3 (20 μM) or DMSO was added to the medium for an additional 5 h. After 6 h of Bortezomib/MG-132 along with 5 h of B3 treatments, the cells were harvested and lysed using RIPA buffer (Tris-HCl pH 7.5 50 mM, NaCl 150 mM, NP-40 (Igepal) 0.3%) containing protease inhibitor cocktail (Complete, Roche), 100 µg/ml PMSF, 5 mM N-ethylmaleimide, and 5 mM iodoacetamide to preserve ubiquitin chains. Following 15 min of centrifugation (10,000×g, 4° C.), the supernatant was transferred into a clean Eppendorf tube. A ubiquitination assay using immunoprecipitation with anti-p53 antibody (CS2524) (endogenous p53 was pulled down) was performed as described above with 1:500 antibody per 1000 μg protein. Poly-ubiquitylated forms of p53 were detected using an anti-p53 antibody (DO-1, sc-126).

[4] = test system: p53 Ubiquitylation in HCT 116 XIAP KO cells; test: In vivo ubiquitylation assay of p53; type: cell-based; details: 20 μM B3, XIAP KO cells
Procedure: as §2

XIAP-BIR3 = biological target: T2, XIAP-BIR3 (Homo sapiens, UniProt P98170); test: MST binding of B3 to fluorescently labelled recombinant XIAP; details: spread printed +/−11 μM, read-out: Kd, direct binding to XIAP-BIR3
T2 construct: fused on or other part: NT650 fluorescent dye attached covalently by maleimide coupling; the protein is otherwise untagged
T2 sequence (P98170 241-356 limits assumed): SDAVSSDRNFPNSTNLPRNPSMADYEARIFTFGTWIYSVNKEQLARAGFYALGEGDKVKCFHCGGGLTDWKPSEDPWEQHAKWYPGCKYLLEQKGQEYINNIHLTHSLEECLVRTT
Procedure: as §1
as §1, with “ARTS” for “ARTS, XIAP, Bcl-2”, “XIAP” for “cIAP1”, “labeling” for “labelling”, “NaCl,” for “NaCl”, “Tween-20. A detailed description is provided in the Supplementary Materials and methods.” for “Tween-20.”

## Cn1ccnc1C(=O)c1ccc(NC(=O)C(=O)N[C@H](CO)Cc2ccccc2)cc1 [B3, (S)-N1-(1-hydroxy-3-phenylpropan-2-yl)-N2-(4-(1-methyl-1H-imidazole-2-carbonyl)phenyl)oxalamide]
MEF cells
  MDM2 levels: reduction
  XIAP levels: reduction
  cPARP or caspase3: elevation
  p53 levels: elevation
[1]
  induction of apoptosis: sufficient to induce apoptosis
BCL-2
  direct binding to Bcl-2: binds with high affinity
XIAP
  direct binding to XIAP: binds with high affinity
[2]; 3 hours
  binding of ARTS to Bcl-2: increase
[2]; 24 hours
  binding of ARTS to Bcl-2: no effect
Jurkat cell lines
  cell death compared with Etoposide: as efficient as the strong pro-apoptotic chemotherapeutic agent Etoposide
[3]
  Ubiquitylation of p53: inhibit
[4]
  p53 Ubiquitylation levels: no effect
XIAP-BIR3
  pKd: 4.44
